Results on nine molecules are retold here after patent publication US12122764B2, “IKAROS zinc finger family degraders and uses thereof” (Gilead Sciences, Inc., priority 2021, dated 2024).

Each structure is given as a SMILES string.

For this assay, the target named is T1, IKZF2 (Homo sapiens, UniProt Q96SW2+Q9UKS7).
T1 construct: expressed in transfected cells
T1 sequence (Q9UKS7 1-500 isoform Q9UKS7-2): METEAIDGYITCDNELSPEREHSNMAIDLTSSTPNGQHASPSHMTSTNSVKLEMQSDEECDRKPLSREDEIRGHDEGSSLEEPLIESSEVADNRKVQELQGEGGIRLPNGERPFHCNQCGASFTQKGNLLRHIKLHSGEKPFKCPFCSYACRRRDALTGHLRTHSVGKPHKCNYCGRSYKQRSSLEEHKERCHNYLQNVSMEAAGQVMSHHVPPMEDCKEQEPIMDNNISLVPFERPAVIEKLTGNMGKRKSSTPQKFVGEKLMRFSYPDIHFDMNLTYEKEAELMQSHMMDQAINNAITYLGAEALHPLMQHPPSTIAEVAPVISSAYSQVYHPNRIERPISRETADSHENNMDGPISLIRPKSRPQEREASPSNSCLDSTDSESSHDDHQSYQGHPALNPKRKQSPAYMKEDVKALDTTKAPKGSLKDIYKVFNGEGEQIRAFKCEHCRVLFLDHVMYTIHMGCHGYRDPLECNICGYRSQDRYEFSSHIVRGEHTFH
T1 sequence (Q96SW2 whole entry): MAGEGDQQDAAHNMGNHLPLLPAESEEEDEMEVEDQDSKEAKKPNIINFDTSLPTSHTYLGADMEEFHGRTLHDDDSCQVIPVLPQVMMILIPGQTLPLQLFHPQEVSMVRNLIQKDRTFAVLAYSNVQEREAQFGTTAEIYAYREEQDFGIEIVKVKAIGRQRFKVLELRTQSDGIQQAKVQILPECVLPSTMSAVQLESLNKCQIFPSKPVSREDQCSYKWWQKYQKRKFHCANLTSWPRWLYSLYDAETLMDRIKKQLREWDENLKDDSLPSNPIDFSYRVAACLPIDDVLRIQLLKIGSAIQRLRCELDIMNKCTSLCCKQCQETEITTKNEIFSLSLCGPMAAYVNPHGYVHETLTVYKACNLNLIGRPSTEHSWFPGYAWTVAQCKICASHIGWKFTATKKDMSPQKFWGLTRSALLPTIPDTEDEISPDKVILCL
T1 sequence (Q16531 whole entry partner): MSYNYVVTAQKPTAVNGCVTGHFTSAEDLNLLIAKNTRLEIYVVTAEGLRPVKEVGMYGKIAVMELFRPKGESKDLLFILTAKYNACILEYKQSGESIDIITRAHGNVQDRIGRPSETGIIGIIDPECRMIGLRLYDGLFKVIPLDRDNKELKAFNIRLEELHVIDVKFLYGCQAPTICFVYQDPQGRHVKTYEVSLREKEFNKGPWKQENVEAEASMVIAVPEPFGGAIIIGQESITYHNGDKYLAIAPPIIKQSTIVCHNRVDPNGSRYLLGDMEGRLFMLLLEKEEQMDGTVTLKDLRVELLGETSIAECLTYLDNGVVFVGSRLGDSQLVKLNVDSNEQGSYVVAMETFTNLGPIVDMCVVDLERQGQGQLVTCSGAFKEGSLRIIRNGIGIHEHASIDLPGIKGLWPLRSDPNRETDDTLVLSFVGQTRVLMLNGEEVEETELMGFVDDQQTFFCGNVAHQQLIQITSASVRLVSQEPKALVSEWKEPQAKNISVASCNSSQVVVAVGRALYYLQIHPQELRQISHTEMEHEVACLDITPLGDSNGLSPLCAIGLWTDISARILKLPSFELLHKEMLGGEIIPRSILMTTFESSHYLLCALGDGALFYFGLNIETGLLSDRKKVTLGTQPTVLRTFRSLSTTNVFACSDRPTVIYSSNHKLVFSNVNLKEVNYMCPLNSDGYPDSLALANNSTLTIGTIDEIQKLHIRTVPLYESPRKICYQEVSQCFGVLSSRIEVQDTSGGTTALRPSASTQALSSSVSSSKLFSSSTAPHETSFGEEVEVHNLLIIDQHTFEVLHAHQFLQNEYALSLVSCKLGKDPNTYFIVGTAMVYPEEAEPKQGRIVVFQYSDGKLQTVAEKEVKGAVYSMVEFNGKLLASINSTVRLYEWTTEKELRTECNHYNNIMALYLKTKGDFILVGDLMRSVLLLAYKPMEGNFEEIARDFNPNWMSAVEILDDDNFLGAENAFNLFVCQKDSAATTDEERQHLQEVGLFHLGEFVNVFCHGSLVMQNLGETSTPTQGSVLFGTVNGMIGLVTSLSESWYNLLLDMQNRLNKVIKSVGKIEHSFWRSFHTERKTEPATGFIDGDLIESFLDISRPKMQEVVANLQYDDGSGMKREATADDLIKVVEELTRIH
Put plainly: HiBiT protein tagging assay, in vitro IKZF2 degradation (HEK293). The class given is cell-based. To be noted: IKZF2-HiBiT reporter Flp-In T-REx HEK293 cells, doxycycline-induced, compound overnight (18-24 hr), normalized to DMSO control; read-out: IKZF2 Dmax (maximum degradation at the highest concentration tested). Here is the method: In vitro degradation of IKZF1 and IKZF2 was measured using HiBiT protein tagging and detection technology (Promega).
HiBiT technology (Promega) was used to develop the quantitative assays to measure the cellular IKZFs level by tagging an 11 amino acid HiBit peptides VSGWRLFKKIS (SEQ ID NO:1) to the protein of interest. Reporter plasmids were generated by fusing a linker sequence (GSSGGSSG; SEQ ID NO:2) followed by the HiBiT tag at the C terminus of IKZF1 and IKZF2. The fusion fragments were subsequently cloned into pcDNA5 pcDNA™5/FRT/TO plasmids (Thermo Fisher, cat #V652020) downstream of the Tetracycline operator. The resulting plasmids were co-transfected with pOG44 Flp-Recombinase Expression Vector (Thermo Fisher, cat #V600520) into Flp-In™ T-REx HEK293 line (Thermo Fisher, cat #R78077) and a stable cell pool was selected by adding 100 μg/ml of Hygromycin (Thermo Fisher, cat #10687010). The reporter cell enabled Tet-On inducible reporter expression from a single copy of the integrated gene.
On Day 1, Cells were grown to ˜80% confluency in TC medium (DMEM Glutamax (Gibco10569), 10% Tet free FBS (Takara 631106), and PenStrep Glutamin (Gibco 10378)) in tissue culture flasks. Doxycycline was then added to a final concentration of 1 μg/ml to induce reporter expression at 37° C. overnight.
On Day 2, 125 nL of serially-diluted solution of testing compounds were dispensed into 384-well white solid assay plates via ECHO acoustic liquid handler. Cells were lifted by 0.25% Trypsin (Gibco 25200) then pelleted by centrifugation (Beckman Avanti J-E) at 500×g for 5 min. Cell pellets were resuspended in TC medium at the concentration of 3e5/mL and 25 μL of cell suspension were added into each well of compound-spotted plates. The plates were returned to a 37° C. incubator overnight (18-24 hr).
On Day 3, assay plates were removed from the TC incubator and 25 μL of Nano-Glo lytic detection system (Promega, cat #N3030) was added to each well. Plates were incubated at r.t. for 3 min with shaking, and luminescence was read using an Envision reader (Perkin Elmer).
All raw data was normalized to DMSO control (final concentration: 0.5%) wells as POC and plotted out for EC50 and Dmax (Maximum degradation at the highest concentration tested in the assay).
Take `CCN1CCC(NCc2ccccc2)C(Oc2ccc3c(c2)CN(C2CCC(=O)NC2=O)C3=O)C1` (racemic) [Example 4]: the Dmax amounted to 51%.

`O=C1CCC(N2Cc3cc(O[C@H]4CN(Cc5ccccc5F)CC[C@@H]4NCc4ccccc4)ccc3C2=O)C(=O)N1` (mixture of isomers) [Example 17]: the Dmax was determined as 91%.

Take `O=C1CCC(N2Cc3cc(OC4CN(Cc5ccncc5)CCC4NCc4ccccc4)ccc3C2=O)C(=O)N1` (racemic) [Example 9]: the Dmax was 87%.

For `O=C1CCC(N2Cc3cc(O[C@@H]4CN(C5CC5)CC[C@H]4NCc4ccccc4)ccc3C2=O)C(=O)N1` (mixture of isomers) [Example 16], the Dmax came out at 57%.

As to `N#Cc1ccc(CN2CC[C@H](NCc3ccccc3)[C@@H](Oc3ccc4c(c3)CN(C3CCC(=O)NC3=O)C4=O)C2)cc1` (mixture of isomers) [Example 32], the Dmax was determined as 94%.

For `O=C1CCC(N2Cc3cc(OC4CN(Cc5ccccc5)CCC4NCC4CC4)ccc3C2=O)C(=O)N1` (racemic) [Example 37], the Dmax amounted to 98%.

Turning to `O=C1CCC(N2Cc3cc(O[C@H]4CN(Cc5ccccc5)CC[C@@H]4NCc4ccccc4F)ccc3C2=O)C(=O)N1` (mixture of isomers) [Example 28], the Dmax came to 90%.

Take `O=C1CCC(N2Cc3cc(O[C@H]4CN(Cc5ccccc5)CC[C@@H]4NCc4ccccc4Cl)ccc3C2=O)C(=O)N1` (mixture of isomers) [Example 10]: the Dmax worked out at 69%.

For the molecule `O=C1CCC(N2Cc3cc(OC4CN(Cc5ccccc5)CCC4NC(=O)c4ccccc4)ccc3C2=O)C(=O)N1` (stereo not drawn) [Example 44, N-((3,4-trans)-1-benzyl-3-((2-(2,6-dioxopiperidin-3-yl)-1-oxoisoindolin-5-yl)oxy)piperidin-4-yl)benzamide], the Dmax came out at 79%.
